Test results published in US20160089343A1 (LSU Health Sciences Center Shreveport, priority 2014, published 2016).
Entries after “also recorded” stand apart in the source; their conditions may differ.

How the values were obtained:
[1] = system: NFκB and Akt/mTOR pathways in SCC40 cells; assay: Modulation of NFκB and Akt/mTOR pathways, SCC40 cells; assay type: cell-based; settings: SCC40, 10 μM curcumin
[2] = system: TPA-induced tumors on mouse skin; settings: topical 10 μmol curcumin twice weekly; cited from earlier work
[3] = system: AKT/mTOR pathway, FGF-2 and MMP-9 in HNSCC cell lines; assay: Biomarkers in HNSCC cell lines (earlier work); assay type: cell-based
Source text: Also, identifying a consistent biomarker that can be validated in chemoprevention trials is critical, as the occurrence of cancer as an end point could take years. […] Acquiring the angiogenic phenotype by premalignant cells is the a critical step in carcinogenesis and FGF-2 is one of the most important angiogenic markers. Oral dysplasias are characterized by deregulations (DNA amplification and homozygous deletion) of multiple components of the FGF signaling network. […] GM-CSF promotes proliferation of endothelial progenitor cells, induces endothelial capillary formation via stimulation of MMP expression and activates JAK2/STAT-3 pathway. IL-17, besides its function as immune marker, is also implicated in stimulating angiogenesis.

[4] = system: prostate cancer xenograft; settings: p.o. gavage 5 mg/day, 5 days/week for 4 weeks; cited from earlier work
[5] = system: Akt/mTOR pathway in SCC066 cells; assay: Modulation of NFκB and Akt/mTOR pathways, SCC066 cells; assay type: cell-based; settings: SCC066, 10 μM curcumin, 24 and 48 hours
tumor cells = assay: Chemoprevention model: pre-treatment before injecting tumor cells, tumor volume; assay type: in vivo, Balb/c nu/nu mice; settings: from 4 days before tumor cells, about three weeks
Method: Balb/c nu/nu mice were randomized into treatment groups. […] Tumors were measured over approximately three weeks. […] ANOVA analysis. […] This also points to its role as a chemopreventive agent rather than a therapeutic agent.

[6] = system: normal fibroblast cell line CCL110; assay: Cell proliferation in the normal fibroblast cell line; assay type: cell-based; settings: CCL110, in vitro
DMBA-induced oral tumors = settings: topical 10 μmol curcumin to cheek pouch 3 times/week for 24 weeks; cited from earlier work
[7] = system: NFκB and Akt/mTOR pathways in PCI15a cells; assay: Modulation of NFκB and Akt/mTOR pathways, PCI15a cells; assay type: cell-based; settings: 10 μM curcumin
[8] = system: pAkt and pS6 in SCC40 xenografts; assay: pAkt and pS6 in SCC40 xenografts of curcumin-treated mice; assay type: in vivo; settings: mice with SCC40 xenografts treated with curcumin
HNSCC cell lines = HNSCC cell lines screened for sensitivity to curcumin (cell proliferation); assay type: cell-based; settings: for sensitivity of a variety of cell lines: spread of sensitivity across cell lines
[9] = system: pNFκB or Akt/mTOR in CCL110 cells; assay: Modulation of NFκB and Akt/mTOR pathways, CCL110 normal fibroblasts; assay type: cell-based; settings: CCL110, 10 μM curcumin, 24 and 48 hours
mTOR pathway markers = assay: Phase 2 biomarker exploratory trial in HNSCC patients; assay type: in vivo, human
Source text: Criteria #1) Biomarker expression in normal tissue should be different from that in high risk tissue. In FIG. 2 we present an analysis of cancer (lanes 5, 6, 11, and 12) and non-cancer (patients with sleep apnea) (lanes 1-4 and 7-10) patient samples. The cancer samples include tumors (T) and histologically tumor-free margins (M). […] Criteria #2) Biomarkers can be detected in small tissue specimens. In our studies we have successfully detected by western blots and even by IHC the various Akt/mTOR markers on samples often as small as 5 mm. Criteria #3) Biomarkers can be expressed in a quantity or pattern that can be correlated with the stage of carcinogenesis.

tumor formation = assay: Model of minimal residual disease; assay type: in vivo

Question: What does the source list for COc1cc(/C=C/C(=O)CC(=O)/C=C/c2ccc(O)c(OC)c2)ccc1O [curcumin]?
Answer: Akt/mTOR pathway ([1]; 24 and 48 hours): no change; pNFκB ([1]; 48 hours): down-regulation; inhibition of the number of tumors per mouse [2]: 98%; FGF-2 expression in HNSCC cells ([3]; p<0.001): downregulation; also recorded: significant inhibition; AKT/mTOR pathway in HNSCC cell lines ([3]; panel of nine HNSCC cell lines): inhibition; MMP-9 in HNSCC cell lines ([3]; panel of nine HNSCC cell lines): downregulation; inhibition of growth of prostate cancer xenograft [4]: ~50%; Akt/mTOR pathway [5]: did not show any modulation; tumor volume versus control (vehicle treated) (tumor cells; 10 mg curcumin): no significant difference; tumor volume versus control (vehicle treated) (tumor cells; 15 mg curcumin, p=0.007, mixed ANOVA): statistically significant difference; dose required to see effects in normal fibroblasts [6]: 20 to 40 µM; reduction of the number of DMBA-induced oral tumors (DMBA-induced oral tumors): ~40%; pNFκB ([7]; 24 and 48 hours): no change; pAkt ([7]; 48 hours): down-regulated; pS6 downstream of mTOR ([7]; 48 hours): down-regulated; pAkt in xenografts [8]: significant decrease; pS6 in xenografts [8]: significant decrease; growth inhibitory effect (HNSCC cell lines; all 10 HNSCC cell lines tested to date): growth inhibitory effects; effect on cell proliferation (HNSCC cell lines; all HNSCC cell lines, 10 μM curcumin): inhibition of cell proliferation; anti-proliferative effect (HNSCC cell lines; panel of nine HNSCC cell lines, earlier work): robust anti-proliferative effects; sensitivity of a variety of cell lines (HNSCC cell lines): consistently sensitive; growth inhibitory effect (HNSCC cell lines; three HNSCC cell lines (PCI15a, SCC40, SCC066), 10 μM, 48 hours): significant growth inhibitory effects; curcumin concentration giving consistent inhibition of cell proliferation (HNSCC cell lines; variety of HNSCC cell lines, in vitro): less than 10 μM; pNFκB or Akt/mTOR [9]: no decrease

Question: With CO[C@H]1C[C@@H]2CC[C@@H](C)[C@@](O)(O2)C(=O)C(=O)N2CCCC[C@H]2C(=O)O[C@H]([C@H](C)C[C@@H]2CC[C@@H](OC(=O)C(C)(CO)CO)[C@H](OC)C2)CC(=O)[C@H](C)/C=C(\C)[C@@H](O)[C@@H](OC)C(=O)[C@H](C)C[C@H](C)/C=C/C=C/C=C/1C [CCI-779, temsirolimus] as the compound, how does the “mTOR pathway markers in tumors and PBMCs” value (mTOR pathway markers) read?
Answer: modulation of these markers

Question: And the survival (tumor formation)?
Answer: improve survival

Question: What about the tumor formation (tumor formation) of the same compound?
Answer: inhibit tumor formation

Question: For CO[C@H]1C[C@@H]2CC[C@@H](C)[C@@](O)(O2)C(=O)C(=O)N2CCCC[C@H]2C(=O)O[C@H]([C@H](C)C[C@@H]2CC[C@@H](OCCO)[C@H](OC)C2)CC(=O)[C@H](C)/C=C(\C)[C@@H](O)[C@@H](OC)C(=O)[C@H](C)C[C@H](C)/C=C/C=C/C=C/1C [RAD001, everolimus], which “sensitivity of a variety of cell lines” value (HNSCC cell lines) is on record?
Answer: wide range of sensitivity
